Measurements reported in patent US3975529A, “Diebenzo(B,E)thiepines” (Roussel-UCLAF, priority 1974, dated 1976).

Tests used:
[1] = tested on: trembling and peripherical cholinergic manifestations provoked by tremorine; assay: Antitremorine activity as a function of time (Table I); type: in vivo, mice; details: for % inhibition of reactions: L (lacrymation) / % inhibition of reactions: S (salivation) / % inhibition of reactions: T (trembling): 200 mg/kg s.c. sesame oil
Method: The antagonism of the test compounds to the trembling and peripherical cholinergic manifestations provoked by tremorine [Everett et al, Science, Vol. 124 (1956), p. 79] was studied on mice.
The products of Examples 2 and 3 were administered subcutaneously in sesame oil solution at doses of 200 and 400 mg/kg at a volume of 25 ml/kg to groups of 10 mice. The mice receied intraperitoneal injections of 20 mg/kg of tremorine either for 4 hours, one day, 2, 3 or 4 days after injection of the test product. […] The reactions (T-trembling; S-salivation; L-lacrymation) were noted 10, 20, 30 and 60 minutes after the tremorine injection and the percent of inhibition of the different reactions at the height of the effect after injection of tremorine were noted as a function of time.

[2] = tested on: antinociceptive activity of oxotremorine; assay: Antagonism of antinociceptive activity of oxotremorine, hot plate (Table III); type: in vivo, mice
Method: The antinociceptive activity of oxotremorine [Leslie, J. Pharm. Pharmae., Vol. 2 (1969), p. 248-50] was determined on mice using the hot plate method of Eddy et al [J. Pharmacol. Vol. 107 (1953), p. 385] in the presence and absence of the test product presumed to be antagonistic. The product of Example 1 was administered subcutaneously in aqueous solution at doses of 50 and 100 mg/kg to groups of 10 mice and the products of Examples 2 to 5 were subcutaneously administered in sesame oil solution at doses of 200 and 400 mg/kg to groups of 10 mice. The mice then received a single intraperitoneal injection of 0.5 mg/kg of oxotremorine either 4 hours, 1 day, 2, 3, 4 or 7 days after the test product administration. For each time considerated, the mice were placed on the hot plate one half hour after the oxotremorine administration and the time for the appearance of nociceptive refluxes consistituted by simultaneous licking of the front paws was noted. The maximum time of staying on the hot plate was fixed at 45 seconds and the percentage of animals with a reaction time (RT) less than 40 seconds in spite of oxotremorine administration was determined.

[3] = 200 mg/kg s.c. sesame oil, after 4 h
[4] = 200 mg/kg s.c. sesame oil, after 1 d
[5] = 200 mg/kg s.c. sesame oil, after 2 d
[6] = 200 mg/kg s.c. sesame oil, after 3 d
[7] = 200 mg/kg s.c. sesame oil, after 4 d
[8] = 200 mg/kg s.c. sesame oil, after 7 d
[9] = 400 mg/kg s.c. sesame oil, after 4 h
[10] = 400 mg/kg s.c. sesame oil, after 1 d
[11] = 400 mg/kg s.c. sesame oil, after 2 d
[12] = 400 mg/kg s.c. sesame oil, after 3 d
[13] = 400 mg/kg s.c. sesame oil, after 4 d
[14] = 400 mg/kg s.c. sesame oil, after 7 d

| Structure (SMILES) | % of animals with a RT less than 40 seconds [2, 3] | % of animals with a RT less than 40 seconds [2, 4] | % of animals with a RT less than 40 seconds [2, 5] | % of animals with a RT less than 40 seconds [2, 6] | % of animals with a RT less than 40 seconds [2, 7] | % of animals with a RT less than 40 seconds [2, 8] | % of animals with a RT less than 40 seconds [2, 9] | % of animals with a RT less than 40 seconds [2, 10] | % of animals with a RT less than 40 seconds [2, 11] | % of animals with a RT less than 40 seconds [2, 12] | % of animals with a RT less than 40 seconds [2, 13] | % of animals with a RT less than 40 seconds [2, 14] | other results |
| --- | --- | --- | --- | --- | --- | --- | --- | --- | --- | --- | --- | --- | --- |
| CCCCCCC(=O)OCCN1C2CCC1CC(=C1c3ccccc3CSc3ccccc31)C2 (racemic) [Example 3, dl N-(β-heptanoyloxyethyl)-11-(3'-nortropylidene)-6,11-dihydrodibenzo(b,e)thiepine] | 50% | 60% | 50% | 50% | 40% | 40% | 70% | 40% | 50% | 30% | 40% | 20% | % inhibition of reactions: L (lacrymation) ([1]; after 4 h): 90%; % inhibition of reactions: S (salivation) ([1]; after 4 h): 30%; % inhibition of reactions: T (trembling) ([1]; after 4 h): 40%; % inhibition of reactions: L (lacrymation) ([1]; after 1 d): 30%; % inhibition of reactions: S (salivation) ([1]; after 1 d): 20%; % inhibition of reactions: T (trembling) ([1]; after 1 d): 0%; % inhibition of reactions: L (lacrymation) ([1]; after 2 d): 100%; % inhibition of reactions: S (salivation) ([1]; after 2 d): 10%; % inhibition of reactions: T (trembling) ([1]; after 2 d): 100%; % inhibition of reactions: L (lacrymation) ([1]; after 3 d): 20%; % inhibition of reactions: S (salivation) ([1]; after 3 d): 0%; % inhibition of reactions: L (lacrymation) ([1]; after 4 d): 0%; % inhibition of reactions: S (salivation) ([1]; after 4 d): 10%; % inhibition of reactions: T (trembling) ([1]; after 4 d): 20%; antitremorine activity (in words) ([1]; s.c. sesame oil, mice, Table I): prolonged antitremorine activity |
| CCCCCCCCCC(=O)OCCN1C2CCC1CC(=C1c3ccccc3CSc3ccccc31)C2 (racemic) [Example 4, dl N-(β-decanoyloxyethyl)-11-(3'-nortropylidene)-6,11-dihydrodibenzo(b,e)thiepine] | 100% | 30% | 30% | 10% | 0% | 20% | 100% | 60% | 30% | 30% | 0% | 30% | – |
| CCCCCCCCCCCCCCCC(=O)OCCN1C2CCC1CC(=C1c3ccccc3CSc3ccccc31)C2 (racemic) [Example 5, dl N-(β-palmitoyloxyethyl)-11-(3'-nortropylidene)-6,11-dihydrodibenzo(b,e)thiepine] | 20% | 30% | 40% | 10% | 30% | 30% | 70% | 60% | 30% | 20% | 20% | 30% | – |
| O=C1CCCN1CC#CCN1CCCC1 [Oxotremorine, oxotremorine, reference compound] | – | – | – | – | – | – | – | – | – | – | – | – | % of animals with a RT less than 40 seconds ([2]; oxotremorine controls, 0.5 mg/kg i.p., 4 h): 10%; % of animals with a RT less than 40 seconds ([2]; oxotremorine controls, 0.5 mg/kg i.p., 1 d): 10%; % of animals with a RT less than 40 seconds ([2]; oxotremorine controls, 0.5 mg/kg i.p., 2 d): 10%; % of animals with a RT less than 40 seconds ([2]; oxotremorine controls, 0.5 mg/kg i.p., 3 d): 10%; % of animals with a RT less than 40 seconds ([2]; oxotremorine controls, 0.5 mg/kg i.p., 4 d): 0%; % of animals with a RT less than 40 seconds ([2]; oxotremorine controls, 0.5 mg/kg i.p., 7 d): 0% |
